# ChEMBL document CHEMBL1201862, “PubChem BioAssay data set” (2004)
#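 Five compound concentrations were applied to cells in 96-well plates for 48 hours; endpoints were derived by simple linear interpolation of the resulting dose-response curve. At the GI50, growth is halved.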 Calls of active or inactive are those of the source. No stated cut-off is given here; in the data, active = GI50 up to about 1.1 µM and inactive = higher.
# Experiments:
# Test in all cases: growth of human tumour cells (NCI), 48 h
# [1] = tested on: A498
# [2] = tested on: Hs-578T
# [3] = tested on: DU-145
# [4] = tested on: T47D
# [5] = tested on: MOLT-4
# [6] = tested on: ACHN
# [7] = tested on: MDA-MB-231
# [8] = tested on: BT-549
# [9] = tested on: UO-31
# [10] = tested on: LOX IMVI
# [11] = tested on: HCT-116
# [12] = tested on: SF-295
# [13] = tested on: HL-60
# [14] = tested on: SF-268
# [15] = tested on: 786-0
# [16] = tested on: K562
# [17] = tested on: RPMI-8226
# [18] = tested on: MDA-N
# [19] = tested on: CCRF-CEM
# [20] = tested on: NCI-H460
# [21] = tested on: SN12C
# [22] = tested on: PC-3
# [23] = tested on: SK-MEL-2
# [24] = tested on: SF-539
# [25] = tested on: CAKI-1
# [26] = tested on: OVCAR-8
# [27] = tested on: SK-MEL-28
# [28] = tested on: TK-10
# [29] = tested on: HCC 2998
# [30] = tested on: OVCAR-5
# [31] = tested on: MCF7
# [32] = tested on: SNB-19
# [33] = tested on: M14
# [34] = tested on: SR
# [35] = tested on: EKVX
# [36] = tested on: NCI/ADR-RES
# [37] = tested on: HCT-15
# [38] = tested on: NCI-H23
# [39] = tested on: NCI-H226
# [40] = tested on: SNB-75
# [41] = tested on: HOP-62
# [42] = tested on: HT-29
# [43] = tested on: MDA-MB-435
# [44] = tested on: HOP-92
# [45] = tested on: UACC-257
# [46] = tested on: KM12
# [47] = tested on: OVCAR-4
# [48] = tested on: SW-620
# [49] = tested on: UACC-62
# [50] = tested on: COLO 205
# [51] = tested on: SK-OV-3
# [52] = tested on: U-251
# [53] = tested on: RXF 393
# [54] = tested on: OVCAR-3
# [55] = tested on: Malme-3M
# [56] = tested on: IGROV-1
compound,measurement,setting,value
COc1ccc(C2=C(N)c3ncccc3C2=O)cc1,GI50,[1],> 100 µM (inactive)
same,GI50,[2],18.9 µM (inactive)
same,GI50,[3],> 100 µM (inactive)
same,GI50,[4],> 100 µM (inactive)
same,GI50,[5],> 100 µM (inactive)
same,GI50,[6],> 10 µM (inactive)
same,GI50,[7],> 100 µM (inactive)
same,GI50,[8],> 100 µM (inactive)
same,GI50,[9],> 100 µM (inactive)
same,GI50,[10],> 100 µM (inactive)
same,GI50,[11],> 100 µM (inactive)
same,GI50,[12],> 100 µM (inactive)
same,GI50,[13],93.8 µM (inactive)
same,GI50,[14],> 100 µM (inactive)
same,GI50,[15],> 100 µM (inactive)
same,GI50,[16],> 100 µM (inactive)
same,GI50,[17],> 100 µM (inactive)
same,GI50,[18],> 100 µM (inactive)
same,GI50,[19],> 100 µM (inactive)
same,GI50,[20],> 100 µM (inactive)
same,GI50,[21],> 100 µM (inactive)
same,GI50,[22],> 100 µM (inactive)
same,GI50,[23],> 100 µM (inactive)
same,GI50,[24],> 100 µM (inactive)
same,GI50,[25],> 100 µM (inactive)
same,GI50,[26],> 100 µM (inactive)
same,GI50,[27],> 100 µM (inactive)
same,GI50,[28],> 10 µM (inactive)
same,GI50,[29],> 100 µM (inactive)
same,GI50,[30],> 100 µM (inactive)
same,GI50,[31],> 100 µM (inactive)
same,GI50,[32],> 100 µM (inactive)
same,GI50,[33],> 100 µM (inactive)
same,GI50,[34],69.7 µM (inactive)
same,GI50,[35],45 µM (inactive)
same,GI50,[36],> 100 µM (inactive)
same,GI50,[37],> 100 µM
same,GI50,[38],> 100 µM (inactive)
same,GI50,[39],> 100 µM (inactive)
same,GI50,[40],> 100 µM (inactive)
same,GI50,[41],> 100 µM (inactive)
same,GI50,[42],> 100 µM (inactive)
same,GI50,[43],> 100 µM (inactive)
same,GI50,[44],> 10 µM (inactive)
same,GI50,[45],> 10 µM (inactive)
same,GI50,[46],> 100 µM (inactive)
same,GI50,[47],> 100 µM (inactive)
same,GI50,[48],> 100 µM (inactive)
same,GI50,[49],60.8 µM (inactive)
same,GI50,[50],72.6 µM (inactive)
same,GI50,[51],> 100 µM (inactive)
same,GI50,[52],> 100 µM (inactive)
same,GI50,[53],24.7 µM (inactive)
same,GI50,[54],91.2 µM (inactive)
same,GI50,[55],43.9 µM (inactive)
same,GI50,[56],> 100 µM (inactive)
